Read-outs that look alike come from different tables or passages of the source.
How the values were obtained:
[1] = tested on: lymphocytes from donor blood and from the blood of an asthmatic patient; assay: Intracellular free [Ca2+]i by flow cytometry with fluo-3/AM; type: cell-based, human; conditions: in either stimulated or untreated cells
Description: Intracellular free [Ca^2+]i content was monitored by flow cytometry using the Ca^2+-sensitive dye fluo-3/AM (Molecular Probe Inc., OR)(Minta, Kao and Tsien, 1989, J. Biol. Chem. 264:8171-8178). Cells obtained from donor blood and those from the blood of an asthmatic patient were further washed twice in DMEM and resuspended to a concentration of 10^7 cells/ml. Fluo-3/AM (1 mM) was prepared in DMSO augmented with the nonionic surfactant Pluronic F-127 (Wyandotte Corp., Mich.). Aliquots of fluo-3/AM stock solution were added to cell suspensions in DMEM/HEPES at a final concentration of 3 μM (loading buffer). Loading was allowed to proceed for 30 min. at 37° C. and continued for 1 hour at 23° C. with gentle agitation. Cells were then adjusted to desired concentrations using fresh DMEM/HEPES, supplemented with 2% horse serum. Autofluorescence was eliminated by setting the threshold sensitivity above the levels obtained in absence of dye. Fluorescence intensity data was collected from 5000 single cells and values were expressed as arbitrary fluorescence units. Prodrug-1 (1 mM) was prepared in DMSO and added when appropriate at a final concentration of 3 μM to the cells for 5 min. prior to calcium treatment.
Lymphocytes from donor blood and from the blood of an asthmatic patient were exposed to prodrug-1. […]

rat hearts = assay: Ex-vivo rat heart Low-flow-Reperfusion Langendorff model
Text: Low-flow Reperfusion Langendorff's heart (Meely and Rovetto, 1975, METHODS IN ENZYMOLOGY, v39:43-60) is an established ex vivo model of a human ischemic heart. A severe decrease in perfusion pressure (PP) below 20 mm Hg (low-flow period) causes sinus bradycardia culminating by stable AV block (“AVB”; 10 out of 11 hearts) frequently followed by ventricular arythmia. Restoration of perfusion pressure causes paroxysmal tachyarrhythmia followed by irreversable ventricular fibrillation (VF).
The experiments were preformed ex vivo on 39 rat hearts. Heart electrical activity and perfusion pressure were stable following 15 min., each. Perfusion buffer was supplemented with DP16 (1.0 μg/l) following the stable AV block during low flow perfusion and during the Reperfusion period.
The experimental protocol documented by FIG. 16 included periods of Normal Coronary Flow (FIG. 6, NF, panel 1) followed by Low-Flow (LF) and then by Normal flow-reperfusion (NF-Rp) (panels 2 and 3, respectively).
The experiments were performed by addition of DP16 (0.5-500 μg/l) to the perfusion buffer after AV block establishment.

[2] = tested on: isolated hearts from pilocarpine-treated rats; assay: Perfusion-Hypoxia-Reperfusion isolated Langendorff heart from pilocarpine-treated rats; set-up: species or system Sprague-Dawley rats; conditions: treatment prior to pilocarpine; initial and final periods of perfusion
Description: (§1) Adult (2-3 months) male Sprague-Dawley rats were used for all experiments. They were fed with standard briquette chow with water ad libitum and were maintained in standard plastic cages (4-5 individuals in each cage) under natural illumination. A pilocarpine-scopolamine epileptic status model (pilocarpine) was performed as described earlier. In a group of 23 rats, pilocarpine was administered i.p. in different doses which ranged from 100 to 400 mg/kg body weight (B/W) for different periods of time; a second group of 17 rats was treated with DP16 prior to pilocarpine administration, wherein the DP16 was injected for 30 min before pilocarpine in the next dose range and its effect was investigated in the ensuing periods.
(§2) In vivo ECG (Birtcher-Cardio-Tracer, model 375, USA) in three standard leads were recorded under ketamine anesthesia (3.3 mg/ky Imalgene 100, Rhone Merieux, France and 7 mg/kg Rompun, Bayer Leverkusen, Germany, i.m.). […] In the case of constant PP the volume of effluent flow was measured on electron balance (Precisa 1000C-3000D, Switzerland). […] Direct ECG were recorded from ventricular apex (lead 1), auriculum (lead 2) and in-between (lead 3). The coronary vessel's perfusion resistance (CVPR) was calculated in arbitrary units as follows: PP/flow/heart weight. […]

[3] = tested on: pilocarpine induced epileptic seizures; assay: Pilocarpine based model of experimental epilepsy; type: in vivo, rats
Description: Acetylcholine, acetylcholinesterase inhibitors and acetylcholine analogues are effective epileptogenic agents when applied intracerebrally or systematically (see ref. in Leite et al., Neurosci. & Biobeh. Rev., 1990, 14:511-17). […] Systemic injections of the pilocarpine, a potent muscarinic cholinergic agonist, are capable of producing a sequence of behavioral alterations including stirring spells, facial automatisms and motor limbic seizures, that develop over 1-2 hours and build progressively into limbic status and following by general status epilepticus.
Immediately following injection of pilocarpine, akinesia, ataxic lurching, facial automatism and […] dominated the animals' behavior. Further development of epileptic events is dose-dependent. Administration of pilocarpine in doses of 300-350 mg/kg causes appearance of limbic seizures with rearing, forelimb clonus, salivation, intense masticatory jaw movements and falling. Motor limbic seizures commenced after 20-30 min., recurred every 2-8 min and lead to status epilepticus. Increase of the dose of pilocarpine up-to 400mg/kg abolished limbic seizures and after 15-25 min of initial behavioral alterations causes fatal general tonic-clonic convulsions. We consider this dose as the LD100.

[4] = tested on: isoproterenol induced myocardial damage; assay: Isoproterenol induced myocardial damage; type: in vivo, Sprague-Dawley rats
Description: Administration of the potent β-adrenoreceptor agonist isoproterenol (ISO) is commonly accepted model of experimental myocardial pathology. The cardioprotective effect of DP16 was tested on 82 Sprague-Dawley female rats weighing 250-350 g. Myocardial damage was induced in rats by two consecutive injections of ISO ([…], s.c.). When appropriate, the injections of ISO were followed in 30 and 180 minutes by DP16 (0.01 μg/kg, i.p.). The effect of DP16 was estimated by ECG analysis and determination of serum glutamate-oxaloacetate transaminase (SGOT) and lactatdehydrogenase (LDH) activity. Mortality of control rats after ISO intervention was 17.1±5.9% (7 out of 41). […] Pathological signs on ECG were aggravated during the experimental period. […] Administration of DP16 decreased mortality in 2 cases (2 out of 30). […] Pathological displacement of the ST-segment was found only on 28 and 40% of ECG (in 24 and in 48 hours following ISO respectively).

[5] = tested on: post-pilocarpine-seizure-cardiopathy (PSCP); assay: Post-pilocarpine-seizure cardiopathy (PSCP) model, in vivo ECG; set-up: species or system Sprague-Dawley rats
Description: as §1, §2

[6] = tested on: rat model of permanent cerebral ischemia; assay: Bilateral permanent cerebral ischemia model (common carotid artery ligation); type: in vivo; conditions: rats, i.p. 0.001-0.1 mg/kg following artery ligation; p<0.01; FIG. 2
Description: Bilateral ligation of the common carotid arteries is the simplest and most direct approach for inducing permanent partial ischemia. In the rats there is almost 64% mortality 24 h later. The causes of mortality are largely brain swelling (edema) and focal lesions (infarcts). Permanent partial global is achieved by isolation of the common carotid artery through an incision on the ventral surface of the neck. The salivary glands are moved laterally and the carotid sheath exposed. Both the vagus and sympathetic nerves are separated from the common carotid artery, which is then permanently ligated. Sprague-Dawley rats (250-300 g) were anesthetized with halothane or by intramuscular injection of 0.1 ml Ketamine (0.1 g/ml, Parke Davis UK) and 0.1 ml Rompun (2%, Bayer, FRG) per 300 g body weight. DP16 was administered intraperitoneally (i.p., 0.001-0.1 mg/kg) when appropriate following the artery ligation. Every experimental and control group included 14 male rats. Statistical analysis was performed according to t-test criteria.

[7] = tested on: metrazol induced seizures (myoclonic jerks); assay: Metrazol minimal seizures test; type: in vivo, BALB/c mice; conditions: 30 min before Metrazol s.c.
Description: Testing of DP16 as a possible antiepileptic drug was performed on 3-4 week old male BALB/c mice (18-27 g). Animals were maintained on an adequate diet and allowed free access to food and water except briefly during the experimental period. Animals were separately housed for one hour in transparent plastic cages before treatment and during the experimental period. Drugs were dissolved in normal saline with injection volume adjusted to 0.01 ml/g of body weight. DP16 was administered i.p., in doses ranging from 0.1 to 300 μg/kg: (0.1 μg/kg: n=10, 5 μg/kg: n=10, 25 μg/kg: n=20, 75 μg/kg: n=20, 150 μg/kg: n=20, and 300 μg/kg: n=10 animals respectively). Control animals received injections i.p. of normal saline. DP16 or saline administration followed in 30 minutes by Metrazol ([…], s.c.). […] Absence or relative delay of myoclonic jerks (MJ) in the experimental group was considered as indication of possible antiepileptic activity. Data were subjected to chi-square analysis with the computer statistic package “StatViewII”,

[8] = tested on: metrazol induced convulsions and death; assay: Metrazol anticonvulsant test (prevention of convulsions and/or death); type: in vivo, mice; conditions: for ED100: mice, one hour before s.c. metrazol (80 mg/kg), 30 minutes observation, TVA16 i.p.
Description: A test sample of TVA16 was administered i.p. (0.01 to 100 mg/kg) to a group of three mice, one hour before an s.c. dose of metrazol (80 mg/kg). An effective dose was the amount which prevented convulsions (scored 2 points per animal) and/or death (scored 1 point per animal) in the subsequent 30 minutes.

O=C(O)CN(CC(=O)O)c1ccccc1OCCOc1ccccc1N(CC(=O)O)CC(=O)O [BAPTA, 1,2-bis-(2-aminophenoxy)ethane-N,N,N′,N′-tetraacetic acid]
reducing the intracellular calcium levels [1]: ineffective

CCCCCCCCCCCCCCCC(=O)OCC(COP(=O)([O-])OCC[N+](C)(C)C)OC(=O)CN(CC(=O)O)c1ccccc1OCCOc1ccccc1N(CC(=O)O)CC(=O)O (stereo not drawn) [DP16]
complete restoration of AV synchronism (rat hearts; 1.0 μg/l in perfusion buffer after AV block establishment): 11 out of 16
decreased level of AVB and prevented ventricular fibrillation (rat hearts; 1.0 μg/l, additional cases of the 16 experiments): 5 cases
efficiency in resolving atrio-ventricular blockade and preventing ventricular fibrillation compared to BAPTA and BAPTA-AM (rat hearts; FIG. 7): much better efficiency
full restoration of the sinus rhythm during reperfusion (rat hearts; reperfusion period): 11 out of 16
coronary vessel's perfusion resistance (CVPR) regulation [2]: prevents damage of CVPR regulation
dose range with dose dependent therapeutic effects ([3]; FIG. 4, reduction in fatal seizures): 10^−8 to 10^−5 mg/kg
effect on death and epileptiform manifestations ([3]; administered prior to pilocarpine): prevented death in the animals and decreased epileptiform manifestations
estimated therapeutic index (ET) ([3]; pilocarpine 400 mg/kg, rats, 0.5 mg/kg/5×10^−7 mg/kg): 1×10^6
percentage of animals exhibiting abnormal level of SGOT and LDH activity ([4]; 0.01 μg/kg i.p.): substantially decreased
mortality ([4]; 0.01 μg/kg i.p. 30 and 180 minutes after ISO, control 7 out of 41): 2 out of 30
pathological displacement of the ST-segment, share of ECG ([4]; 24 hours following ISO): 28%
pathological displacement of the ST-segment, share of ECG ([4]; 48 hours following ISO): 40%
ECG alterations in the phase of stabilization ([5]; 3-14 days after pilocarpine, p<0.01 vs not protected): prevents the appearance of ECG alterations
normalized electrical activity (ECG) at the acute stage of PSCP ([5]; DP16 prior to pilocarpine, 24h after pilocarpine): 5 out of 7
decrease of post-ischemic mortality compared with control [6]: 250%
response to metrazol (myoclonic jerks) ([7]; 0.1 μg/kg i.p.): same response to metrazol as control
response to metrazol (myoclonic jerks) ([7]; 5 to 300 μg/kg i.p., p<0.001): significant protective effect

C[C@]12N[C@H](Cc3ccccc31)c1ccccc12 [MK-801]
ED100 ([8]; Mus musculus, read-out: ED100): 0.5 mg/kg

CCCCCCCCCCCCCCCC(=O)OCC(COP(=O)([O-])OCC[N+](C)(C)C)OC(=O)C(CCC)CCC (stereo not drawn) [TVA16]
dose response curve compared to valproic acid itself ([8]; FIG. 8, doses as mg of valproic acid per kg body weight): improvement
potency relative to sodium valproate ([8]; from Table 1): more than 500 ×
ED100 [8]: 20 mg/kg

CN1C(=O)CN=C(c2ccccc2)c2cc(Cl)ccc21 [diazepam]
ED100 ([8]; Mus musculus, read-out: ED100): 2.5 mg/kg

CCC1(c2ccccc2)CCC(=O)NC1=O (stereo not drawn) [glutethimide]
ED100 ([8]; Mus musculus, read-out: ED100): 150 mg/kg

CCCC(C)(COC(N)=O)COC(N)=O [meprobamate]
ED100 ([8]; Mus musculus, read-out: ED100): 200 mg/kg

CCC1(c2ccccc2)C(=O)NC(=O)NC1=O [phenobarbital]
ED100 ([8]; Mus musculus, read-out: ED100): 50 mg/kg

CC[C@@H]1C(=O)OC[C@@H]1Cc1cncn1C [pilocarpine, reference compound]
LD100 (fatal general tonic-clonic convulsions) ([3]; rats): 400 mg/kg
